{
  "source": "patent US20050049209A1",
  "about": "“Pharmaceutical compositions for delivering macrolides” (priority 2003, published 2005)",
  "origin": "cited, not measured here",
  "details": "can be solubilized at pH<5 as salt",
  "data": [
    {"molecule": "CC[C@H]1OC(=O)[C@H](C)[C@@H](OC2CC(C)(OC)C(O)C(C)O2)[C@H](C)[C@@H](OC2OC(C)CC(N(C)C)C2O)[C@](C)(OC)C[C@@H](C)C(=O)[C@H](C)[C@@H](O)[C@]1(C)O", "note": "(stereo partly shown) [Clarithromycin freebase, 6-O-methyl-erythromycin]", "values": [
      {"measurement": "solubility in water", "result": "substantially insoluble"}
    ]}
  ]
}
